Assay results as given in a melting point compilation (Tetko et al.; mined from patent text by program, amines drawn as free bases though some values may be those of a salt).

SMILES | melting point [°C]
COc1cc(CCC2OCCO2)ccc1OCc1nc(-c2ccccc2)oc1C | 90 to 91
CCOC(=O)c1cn(-c2ccccc2)c2ccc(CN3CCOCC3)cc2c1=O | 159 to 161
O=C1c2cccc3cccc(c23)C(=O)N1CCN1CCC(O)(c2ccccc2)CC1 | 177 to 179
O=c1[nH]c2ccccc2n1CCCCN1CCC(c2c[nH]c3ccccc23)CC1 | 196
C=CCC1(C(C)CC(=O)OCC)C(=O)NC(=O)NC1=O (stereo not drawn) | 114
Cc1n[nH]c(=O)n1-c1ccc(OCC(F)(F)C(F)F)cc1 | 206 to 207
Cc1cc2c(cc1Cl)C(c1ccccc1Cl)C(=O)N2 (stereo not drawn) | 203 to 209
COc1ccc(NC(=O)c2ccc(-c3ccc(-c4noc(C)n4)cc3)cc2)cc1N1CCN(C)CC1 | 135 to 137
CN(Cc1cc(C(F)(F)F)cc(C(F)(F)F)c1)C(=O)c1ncc2ccccc2c1-c1ccccc1 | 139 to 140
Fc1nc(NCc2ccncc2)c2nc[nH]c2n1 | 200 to 202
CS(=O)(=O)c1ccc(-c2sc(-c3ccc(Br)s3)nc2-c2ccc(F)cc2)cc1 | 190 to 191
Cc1ccc2c(-c3cccc(O)c3)nc(=O)n(C(C)C)c2c1 | 270 to 272
CCOC(=O)N1CCC(Oc2ccccc2)(c2ccccc2)CC1 | 117 to 118
CC(C)n1nc(-c2sc(NC(=O)c3cccc(C(F)(F)F)c3)nc2-c2ccccc2)ccc1=O | 237 to 238
CCOC(=O)c1cn(Cc2ccc(OCc3nc(-c4ccccc4)oc3C)cc2)nc1OCc1ccc(OCc2nc(-c3ccccc3)oc2C)cc1 | 118 to 119
Cc1c(Br)c2ccccn2c1C(=O)c1cc(Cl)c(O)c(Cl)c1 | 240
Cc1nc2cc(C3CCc4cncn43)ccc2[nH]1 (stereo not drawn) | 230
CNC(=O)c1cccc2cccc(NC(=O)c3cccs3)c12 | 210
COc1ccc(-c2nc(CCO)nc3cc(OC)c(OC)cc23)cc1OC | 165 to 166

SMILES | melting point [°C]
CCOC(=O)CCC(=O)[C@H](Cc1ccccc1)NC(=O)OC(C)(C)C | 56 to 58
COc1ccc2c(C(=O)O)c(OC)ccc2c1 | 153 to 155
O=Cc1ccc(NS(=O)(=O)c2ccccc2)cc1O | 150 to 157
CC(C)(C(O)c1ccc(Br)cc1)n1ncn(-c2ccc(N3CCN(c4ccc(O)cc4)CC3)cc2)c1=O (stereo not drawn) | 224
CC(C)(C)OC(=O)NCCC[C@@H](CO)NC(=O)OCC1c2ccccc2-c2ccccc21 | 107 to 109
O=[N+]([O-])c1cc(OCc2ccccc2)ccc1Cl | 50 to 50.5
COc1cc(NC(C)=O)c(Cl)c(C(F)(F)F)c1Cl | 143 to 144
Cn1c(=O)c(-c2ccc(Cl)cc2Cl)cc2c3cc(-c4nc(CN5CCCC5)cs4)ccc3n(C)c21 | 222 to 226
NS(=O)(=O)c1nccn1-c1nccs1 | 157 to 162
CS(=O)(=O)c1ccc(C(CC2CCCC2)c2nc(Br)c(C(=O)C3CC3)[nH]2)cc1 (stereo not drawn) | 160 to 161
CCOC(=O)COc1cc(C(=O)OC)on1 | 66 to 67
O=C(OCC1OC(OCc2ccccc2)C(OCc2ccccc2)C(OCc2ccccc2)C1OCc1ccccc1)c1ncc[nH]1 (stereo not drawn) | 105 to 108
CNc1nc(N)nc2c1ncn2C1CC(F)C(CO)O1 (stereo not drawn) | 111
CCCCCNc1ncnc2c(C(C)C)n[nH]c12 | 73 to 75
Cn1cc(C(=O)NCc2ccc(Cl)cc2)c(=O)c2cc(CN3CCOCC3)cc(C#CCF)c21 | 189 to 191
COc1ccc(S(=O)(=O)N2c3ccccc3-c3ccccc3C2C)cc1OC (stereo not drawn) | 131 to 133
COc1ccc2c(c1)nnc1nnc(C)n12 | 259 to 261
CCOC(=O)CCN1CCN(CC=CC(=O)Nc2cc3c(Nc4ccc(F)c(Cl)c4)ncnc3cc2OCC2CC2)CC1 | 183 to 185
CC(C)(C(=O)c1ccc(Cl)cc1)n1cncn1 | 111
